system: TDP-43 aggregation; assay: TDP-43 aggregation assay in SY5Y TDP-43WT cells (high content imaging); format: cell-based; conditions: Homo sapiens, tetracycline induction 24 hrs, 1 hour compound pre-treatment, sodium arsenite 23 hrs, 8-point dose curve, percentage of cells with TDP-43 aggregates, read-out: IC50, Inhibition of TDP-43 Aggregation
Experimental: Exemplary compounds disclosed herein were evaluated for efficacy in inhibiting TDP-43 inclusions cellular imaging-based assays.
The cellular model was in human neuroblastoma SH SYSY cells (ATCC, cat #: CRL-2266). The parent cell line was first engineered to stably express a tetracycline repressor protein (designated as TREx-SY5Y cells, customer cell line development by ThermoFisher). Wild-type human TDP-43 with a C-terminus eGFP tag was synthesized and cloned into pcDNA5/TO expression vector (ThermoFisher). The plasmid was transfected into TREx-SY5Y cells using Lipofectamine 2000 and hygromycin resistant colonies were selected. Expression of TDP-43WT::eGFP was examined under fluorescent microscopy and Western blot upon tetracycline induction. The clone that was used for TDP-43 aggregation assay is referred to as SY5Y TDP-43WT cells hereafter.
Compound inhibition of TDP-43 aggregation was tested in an 8-point dose curve in 96-well format. Briefly, TDP-43WT::eGFP expression was induced with […] for 24 hrs (SY5Y TDP-43WT cells). The cells were then pre-treated for 1 hour with exemplary compounds before adding sodium arsenite to a final concentration of […] and incubated for another 23 hrs. At the end of the treatment the cell monolayers were washed in PBS and fixed in 4% paraformaldehyde (PFA), diluted from 16% stock (Electron Microscopy Sciences cat: #15710-S). The inhibitory effect on TDP-43 aggregation was measured using CellInsight CX7 high content imager (ThermoFisher). The percentage of cells with TDP-43 aggregates was calculated based on the total number of cells identified by DAPI staining. An 8-point dose response curve was generated, and the IC50 for each compound tested was determined (Table 3).
In Table 3 below, A indicates an IC50 (nM)<500 nM, B indicates an IC50 (nM) 500 nM to <1000 nM, C indicates an IC50 (nM) 1000 nM to <2000 nM, D indicates an IC50 (nM) 2000 nM to <6000 nM, and E indicates an IC50 (nM) 6000 nM to ≤10000 nM.

First: Cc1cc(-c2ccc(N3CCN(C4COC4)CC3)cc2)sc1C(=O)N1CC[C@H](N)C1 [Compound 154, (S)-(3-aminopyrrolidin-1-yl)(3-methyl-5-(4-(4-(oxetan-3-yl)piperazin-1-yl)phenyl)thiophen-2-yl)methanone]
Second: Cc1cc(-c2ccc(N3CCN(C)CC3)cc2)sc1C(=O)N1CC[C@H](N)C1 [Compound 185, (S)-(3-aminopyrrolidin-1-yl)(3-methyl-5-(4-(4-methylpiperazin-1-yl)phenyl)thiophen-2-yl)methanone]
The IC50 of the first is higher: 500 to 1000 nM for the first, under 500 nM for the second. The second is the more potent here.

First: CCc1cc(-c2cc(C)c(C(=O)N3CC[C@H](N)C3)s2)ccc1C1CCOCC1 [Compound 157, (S)-(3-aminopyrrolidin-1-yl)(5-(3-ethyl-4-(tetrahydro-2H-pyran-4-yl)phenyl)-3-methylthiophen-2-yl)methanone]
Second: Cc1cc(-c2ccc3c(c2)CCC3N(C)C)sc1C(=O)N1CC[C@H](N)C1 (stereo partly drawn) [Compound 188, ((S)-3-aminopyrrolidin-1-yl)(5-(1-(dimethylamino)-2,3-dihydro-1H-inden-5-yl)-3-methylthiophen-2-yl)methanone]
The IC50 of the first is higher: 6000 to 10000 nM for the first, under 500 nM for the second.

First: Cc1cc(-c2ccc(C3CCN(C4CCNC4)CC3)cc2)sc1C(=O)N1CC[C@H](N)C1 (stereo partly drawn) [Compound 171, ((S)-3-aminopyrrolidin-1-yl)(3-methyl-5-(4-(1-(pyrrolidin-3-yl)piperidin-4-yl)phenyl)thiophen-2-yl)methanone]
Second: Cc1cc(-c2ccc(C3CCN(C4CNC4)CC3)cc2)sc1C(=O)N1CC[C@H](N)C1 [Compound 174, (S)-(3-aminopyrrolidin-1-yl)(5-(4-(1-(azetidin-3-yl)piperidin-4-yl)phenyl)-3-methylthiophen-2-yl)methanone]
The IC50 of the first is lower: 500 to 1000 nM for the first, 1000 to 2000 nM for the second. The first is the more potent here.

`Cc1cc(-c2ccc(C3CCN(C4CSC4)CC3)cc2)sc1C(=O)N1CC[C@H](N)C1` [Compound 172, (S)-(3-aminopyrrolidin-1-yl){3-methyl-5-[4-(1-thietan-3-ylpiperidin-4-yl)phenyl]thiophen-2-yl} methanone] and `Cc1cc(-c2ccc(C3CCN(C4CC4)CC3)cc2)sc1C(=O)N1CC[C@H](N)C1` [Compound 175, (S)-(3-aminopyrrolidin-1-yl)(5-(4-(1-cyclopropylpiperidin-4-yl)phenyl)-3-methylthiophen-2-yl)methanone] cannot be ordered by IC50: under 500 nM for the first, under 500 nM for the second.

First: Cc1cc(-c2ccc(C3CCN(C4CN(C)C4)CC3)cc2)sc1C(=O)N1CC[C@H](N)C1 [Compound 173, (S)-(3-aminopyrrolidin-1-yl)(3-methyl-5-(4-(1-(1-methylazetidin-3-yl)piperidin-4-yl)phenyl)thiophen-2-yl)methanone]
Second: Cc1cc(-c2ccc(C3CCN(C4CCNCC4)CC3)cc2)sc1C(=O)N1CC[C@H](N)C1 [Compound 177, (S)-(5-(4-([1,4′-bipiperidin]-4-yl)phenyl)-3-methylthiophen-2-yl)(3-aminopyrrolidin-1-yl)methanone]
The IC50 of the first is lower: under 500 nM for the first, 500 to 1000 nM for the second. The first is the more potent here.

First: Cc1cc(-c2ccc(N3CCC(C)CC3)cc2)sc1C(=O)N1CC[C@H](N)C1 [Compound 184, (S)-(3-aminopyrrolidin-1-yl)(3-methyl-5-(4-(4-methylpiperidin-1-yl)phenyl)thiophen-2-yl)methanone]
Second: Cc1cc(-c2ccc(C3(N(C)C)CCC3)cc2)sc1C(=O)N1CC[C@H](N)C1 [Compound 187, (S)-(3-aminopyrrolidin-1-yl)(5-(4-(1-(dimethylamino)cyclobutyl)phenyl)-3-methylthiophen-2-yl)methanone]
The IC50 of the first is higher: 2000 to 6000 nM for the first, 500 to 1000 nM for the second.

Compared with `Cc1cc(-c2ccc3c(c2)CCCC3N(C)C)sc1C(=O)N1CC[C@H](N)C1` (stereo partly drawn) [Compound 186, ((S)-3-aminopyrrolidin-1-yl)(5-(5-(dimethylamino)-5,6,7,8-tetrahydronaphthalen-2-yl)-3-methylthiophen-2-yl)methanone], `Cc1cc(-c2ccc3c(c2)CN(C)CC3)sc1C(=O)N1CC[C@H](N)C1` [Compound 189] is lower in IC50: 2000 to 6000 nM for the first, under 500 nM for the second. The second is the more potent here.

— US20260258025A1, “INHIBITORS OF TDP-43 AND TAU AGGREGATION” (Aquinnah Pharmaceuticals, inc., priority 2023, published 2026)
